These results are taken from patent publication US8871753B2, “Macrocyclic compounds and their use as kinase inhibitors” (Incyte Corporation, priority 2008, dated 2014).

What is called IC50 is the concentration that inhibits the measured activity by half.

Structures can show the parent of a compound that is named as a salt. Where two headings read alike, the source gives them in different places.

Assay type in all cases: biochemical
The target in assay [1] is T1, human JAK1 (a.a. 837-1142) (Homo sapiens, UniProt P23458).
T1 construct: human JAK1 (a.a. 837-1142); His tag (N); made in house; host or cells: insect cells (baculovirus)
T1 sequence (P23458 849-1154): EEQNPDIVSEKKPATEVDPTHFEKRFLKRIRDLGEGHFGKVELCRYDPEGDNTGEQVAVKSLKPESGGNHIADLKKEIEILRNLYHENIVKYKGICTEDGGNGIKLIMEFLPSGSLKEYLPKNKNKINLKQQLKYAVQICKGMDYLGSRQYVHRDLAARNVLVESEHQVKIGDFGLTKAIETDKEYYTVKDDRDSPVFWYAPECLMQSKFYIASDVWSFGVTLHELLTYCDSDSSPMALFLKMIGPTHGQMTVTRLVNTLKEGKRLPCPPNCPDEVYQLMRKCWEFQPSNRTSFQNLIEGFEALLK
In words: In vitro JAK kinase assay (HTRF, phosphorylation of a biotinylated peptide), JAK1. The settings on record: read-out: JAK1 IC50. The essentials: (§1)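 Phosphorylation of a biotinylated peptide by the JAK kinase domain, detected by HTRF with Eu-Py20 and SA-APC. ATP was 90 μM for JAK1, 30 μM for JAK2 and 3 μM for JAK3. Reactions ran 1 h at room temperature and were stopped with EDTA, followed by 40 min antibody binding.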
In general terms: TR-FRET usually uses a lanthanide donor and a delayed reading to cut background.

In assay [2] the target is T2, human JAK2 (a.a. 828-1132) (Homo sapiens, UniProt O60674).
T2 construct: JAK2 (a.a. 828-1132); His tag (N); made in house; host or cells: insect cells (baculovirus)
T2 sequence (O60674 828-1132): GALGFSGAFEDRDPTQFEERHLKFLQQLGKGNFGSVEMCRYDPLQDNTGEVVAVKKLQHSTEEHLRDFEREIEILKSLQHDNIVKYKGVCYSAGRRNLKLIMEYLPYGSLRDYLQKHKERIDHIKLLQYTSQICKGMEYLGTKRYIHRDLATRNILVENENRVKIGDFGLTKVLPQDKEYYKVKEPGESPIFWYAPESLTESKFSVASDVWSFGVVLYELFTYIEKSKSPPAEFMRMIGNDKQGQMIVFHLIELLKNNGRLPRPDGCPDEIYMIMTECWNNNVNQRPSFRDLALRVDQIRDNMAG
In words: In vitro JAK kinase assay (HTRF, phosphorylation of a biotinylated peptide), JAK2. Summed up: as §1

The target of assay [3] is T3, human JAK3 (a.a. 781-1124) (Homo sapiens, UniProt P52333).
T3 construct: JAK3 (a.a. 781-1124); His tag (N); made in house; host or cells: insect cells (baculovirus)
T3 sequence (P52333 781-1124): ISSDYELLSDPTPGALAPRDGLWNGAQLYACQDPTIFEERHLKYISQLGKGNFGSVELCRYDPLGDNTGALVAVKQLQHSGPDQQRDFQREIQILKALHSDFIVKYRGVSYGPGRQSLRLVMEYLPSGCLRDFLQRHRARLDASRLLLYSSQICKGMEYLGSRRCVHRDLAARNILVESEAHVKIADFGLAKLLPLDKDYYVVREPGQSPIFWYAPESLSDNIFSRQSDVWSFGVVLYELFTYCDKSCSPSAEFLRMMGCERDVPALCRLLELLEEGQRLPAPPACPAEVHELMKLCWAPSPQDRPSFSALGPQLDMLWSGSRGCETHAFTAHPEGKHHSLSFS
In words: In vitro JAK kinase assay (HTRF, phosphorylation of a biotinylated peptide), JAK3. Summed up:
as §1

The next assay deals with TYK2 (Homo sapiens, UniProt P29597). In words: TYK2 kinase inhibition (Table A1).
Chain of TYK2 (P29597 whole entry): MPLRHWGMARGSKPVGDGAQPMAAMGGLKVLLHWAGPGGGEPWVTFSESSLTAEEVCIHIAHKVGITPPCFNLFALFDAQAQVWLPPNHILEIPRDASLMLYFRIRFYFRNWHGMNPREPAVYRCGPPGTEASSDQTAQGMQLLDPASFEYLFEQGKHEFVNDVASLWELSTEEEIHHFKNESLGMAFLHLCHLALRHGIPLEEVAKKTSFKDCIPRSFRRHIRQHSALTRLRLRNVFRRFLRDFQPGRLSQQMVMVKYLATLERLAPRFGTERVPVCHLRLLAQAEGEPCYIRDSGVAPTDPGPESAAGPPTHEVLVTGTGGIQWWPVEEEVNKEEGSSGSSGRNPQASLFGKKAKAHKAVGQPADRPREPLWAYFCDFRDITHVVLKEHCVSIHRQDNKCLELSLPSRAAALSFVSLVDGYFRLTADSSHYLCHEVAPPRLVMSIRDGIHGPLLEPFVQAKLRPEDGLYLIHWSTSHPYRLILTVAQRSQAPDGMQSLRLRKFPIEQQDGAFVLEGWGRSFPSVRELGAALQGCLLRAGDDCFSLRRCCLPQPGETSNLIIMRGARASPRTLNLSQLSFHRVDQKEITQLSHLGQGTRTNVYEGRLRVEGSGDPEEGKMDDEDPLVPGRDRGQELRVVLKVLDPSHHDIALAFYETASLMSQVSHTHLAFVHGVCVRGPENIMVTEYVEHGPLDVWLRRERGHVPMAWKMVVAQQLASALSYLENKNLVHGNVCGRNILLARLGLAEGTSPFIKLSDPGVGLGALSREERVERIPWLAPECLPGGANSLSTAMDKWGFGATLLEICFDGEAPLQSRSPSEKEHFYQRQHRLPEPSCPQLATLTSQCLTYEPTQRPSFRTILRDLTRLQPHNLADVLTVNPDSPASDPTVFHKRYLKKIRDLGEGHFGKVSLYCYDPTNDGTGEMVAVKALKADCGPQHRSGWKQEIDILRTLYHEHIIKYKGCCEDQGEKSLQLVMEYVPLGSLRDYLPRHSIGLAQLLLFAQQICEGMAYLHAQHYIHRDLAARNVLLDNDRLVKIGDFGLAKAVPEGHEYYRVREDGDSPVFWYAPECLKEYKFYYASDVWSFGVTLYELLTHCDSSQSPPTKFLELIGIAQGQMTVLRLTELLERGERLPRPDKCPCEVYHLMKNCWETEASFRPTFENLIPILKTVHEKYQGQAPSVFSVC
Assay [4] has as its target T4, Recombinant Human Anaplastic Lymphoma Kinase (Homo sapiens, UniProt Q9UM73).
T4 construct: purchased Invitrogen, Carlsbad, Calif
In words: ALK HTRF kinase assay. Summed up:
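Readout was HTRF between a Eu-W1024 anti-phosphotyrosine antibody and streptavidin-APC bound to biotinylated peptide phosphorylated by recombinant human ALK. IC50 values came from a four-parameter logistic fit.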

The mark [5] stands for this setting: compound at a concentration of 500 nM or 1 mM (not specified), cells shown as percentage.
Setting [6] is: Table B1, cells without percent sign.
Where [7] appears, read: method AA1 (90 μM ATP) or AA2 (1000 μM ATP), not stated per value.
The mark [8] stands for this setting: method AA1 (30 μM ATP) or AA2 (1000 μM ATP), not stated per value.
Setting [9] is: method AA1 (3 μM ATP) or AA2 (1000 μM ATP), not stated per value.
Where [10] appears, read: compound at 500 nM or 1 mM, 90 μM ATP.

T4 sequence (Q9UM73 19-1620): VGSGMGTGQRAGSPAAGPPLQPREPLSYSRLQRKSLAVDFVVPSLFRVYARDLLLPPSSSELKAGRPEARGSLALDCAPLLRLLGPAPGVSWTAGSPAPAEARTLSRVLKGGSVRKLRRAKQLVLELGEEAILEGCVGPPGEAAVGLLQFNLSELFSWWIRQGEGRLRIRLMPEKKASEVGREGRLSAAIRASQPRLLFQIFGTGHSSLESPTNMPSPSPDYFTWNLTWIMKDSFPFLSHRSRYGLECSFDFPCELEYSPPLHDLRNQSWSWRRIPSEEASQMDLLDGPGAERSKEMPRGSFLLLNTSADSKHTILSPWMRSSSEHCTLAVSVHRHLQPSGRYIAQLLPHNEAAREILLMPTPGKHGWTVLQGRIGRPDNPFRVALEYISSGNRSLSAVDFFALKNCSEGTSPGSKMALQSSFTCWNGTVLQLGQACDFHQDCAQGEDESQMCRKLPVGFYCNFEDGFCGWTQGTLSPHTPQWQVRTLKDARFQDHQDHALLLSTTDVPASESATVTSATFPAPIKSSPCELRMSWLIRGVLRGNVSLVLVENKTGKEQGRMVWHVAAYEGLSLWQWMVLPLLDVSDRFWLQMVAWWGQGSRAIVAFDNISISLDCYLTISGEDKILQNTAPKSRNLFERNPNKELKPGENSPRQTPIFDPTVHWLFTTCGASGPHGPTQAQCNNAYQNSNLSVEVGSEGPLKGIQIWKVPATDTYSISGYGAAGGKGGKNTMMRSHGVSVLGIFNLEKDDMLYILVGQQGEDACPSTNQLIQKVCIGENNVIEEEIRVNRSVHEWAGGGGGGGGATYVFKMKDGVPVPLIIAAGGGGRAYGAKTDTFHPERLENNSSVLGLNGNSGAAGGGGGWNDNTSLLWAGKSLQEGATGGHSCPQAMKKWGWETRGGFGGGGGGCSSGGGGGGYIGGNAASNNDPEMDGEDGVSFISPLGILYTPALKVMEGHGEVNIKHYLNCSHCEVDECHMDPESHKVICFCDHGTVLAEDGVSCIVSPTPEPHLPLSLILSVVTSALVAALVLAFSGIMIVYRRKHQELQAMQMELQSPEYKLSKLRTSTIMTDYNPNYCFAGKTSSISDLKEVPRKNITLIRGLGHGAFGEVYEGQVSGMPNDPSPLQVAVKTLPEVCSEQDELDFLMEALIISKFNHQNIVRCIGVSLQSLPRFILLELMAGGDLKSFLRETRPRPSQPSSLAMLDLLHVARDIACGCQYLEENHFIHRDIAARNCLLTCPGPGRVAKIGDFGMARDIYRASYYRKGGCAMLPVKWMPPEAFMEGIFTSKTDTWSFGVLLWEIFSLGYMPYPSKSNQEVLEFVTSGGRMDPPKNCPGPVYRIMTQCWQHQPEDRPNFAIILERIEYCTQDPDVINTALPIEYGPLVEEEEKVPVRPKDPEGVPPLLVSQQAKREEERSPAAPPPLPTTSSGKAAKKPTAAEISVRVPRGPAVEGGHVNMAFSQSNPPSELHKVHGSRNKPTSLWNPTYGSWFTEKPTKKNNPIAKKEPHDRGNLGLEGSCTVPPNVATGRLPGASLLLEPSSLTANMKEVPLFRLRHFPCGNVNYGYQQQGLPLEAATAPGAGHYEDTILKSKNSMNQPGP

On to `CCC(C)c1ccccc1NC(=O)Nc1ccc2cc1CCc1cccc(c1)Nc1ncc(Cl)c(n1)N2` (stereo not drawn) [Example B126, N-(2-sec-Butylphenyl)-N′-[6-chloro-2,4,8,22-tetraazatetracyclo[14.3.1.1(3,7).1(9,13)]docosa-1(20),3(22),4,6,9(21),10,12,16,18-nonaen-12-yl]urea trifluoroacetate], for which the IC50 in assay [1] (Table B1) is 8.9 nM; in assay [2] (Table B1), 20 nM; in assay [3] (Table B1) it was 164 nM; on TYK2 (Table B1), 52 nM. Further, in assay [4] (setting [5]), the “ALK % of inhibition at a concentration of 500 nM or 1 mM” value (“ALK % of inhibition” for short) was found to be 6.1%.

`O=S(=O)(Cc1ccccc1)Nc1ccc2cc1CCc1cccc(c1)Nc1ncc(Cl)c(n1)N2` [Example B147, N-[6-Chloro-2,4,8,22-tetraazatetracyclo[14.3.1.1(3,7).1(9,13)]docosa-1(20), 3(22),4,6,9(21),10,12,16,18-nonaen-12-yl]-1-phenylmethanesulfonamide trifluoroacetate]: the IC50 in assay [1] (Table B1) was found to be 2.5 nM; in assay [2] (Table B1), 1.5 nM; in assay [3] (Table B1), 37 nM; against TYK2 (Table B1), 6.6 nM; in assay [4] (setting [6]), 1800 nM.

On to `CNCc1ccc2cc1CCc1cncc(c1)Nc1ncc(Cl)c(n1)N2` [Example B334, 1-[6-Chloro-2,4,8,18,22-pentaazatetracyclo[14.3.1.1(3,7).1(9,13)]docosa-1(20),3(22),4,6,9(21),10,12,16,18-nonaen-12-yl]-N-methylmethanamine trihydrochloride], for which the IC50 was 44 nM in assay [1] (Table B1), 199 nM in assay [2] (Table B1), greater than 200 nM in assay [3] (Table B1) and greater than 200 nM against TYK2 (Table B1). For the same molecule, the “ALK % of inhibition” value in assay [4] (percentage inhibition of the example compound at a concentration of 500 nM or 1 mM (not specified which)) was determined as 72%.

Turning to `O=C(Nc1ccccc1)Nc1cc2cc(c1)OCCSc1cccc(c1)Nc1nc(ncc1Cl)N2` [Example D65, N-[6-Chloro-17-oxa-14-thia-2,4,8,24-tetraazatetracyclo[16.3.1.1(3,7).1(9,13)]tetracosa-1(22),3(24),4,6,9(23),10,12,18,20-nonaen-20-yl]-N′-phenylurea trifluoroacetate], the IC50 in assay [1] (Table D1) was 18 nM; in assay [2] (Table D1), 5.1 nM; in assay [3] (Table D1), 16 nM; on TYK2 (Table D1), 6.4 nM; in assay [4] (Table D1, 90 μM ATP), greater than 1000 nM.

With `CC(C)(C)OC(=O)N1CCCC(NC(=O)Nc2ccc3cc2CCc2cccc(c2)Nc2ncc(Cl)c(n2)N3)C1` (stereo not drawn) [Example B237, tert-Butyl 3-[({[6-chloro-2,4,8,22-tetraazatetracyclo[14.3.1.1(3,7).1(9,13)]docosa-1(20),3(22),4,6,9(21),10,12,16,18-nonaen-12-yl]amino}carbonyl)amino]piperidine-1-carboxylate], the IC50 in assay [1] (Table B1) was 7.9 nM; in assay [2] (Table B1) it was 18 nM; in assay [3] (Table B1), 122 nM; against TYK2 (Table B1), 16 nM. Moreover, the “ALK % of inhibition” value in assay [4] (setting [5]) is given as 6.2%.

Consider `CS(=O)(=O)N1CC[C@@H](NC(=O)Nc2ccc3cc2CCc2cccc(c2)Nc2ncc(Cl)c(n2)N3)C1` [Example B178, N-[6-Chloro-2,4,8,22-tetraazatetracyclo[14.3.1.1(3,7).1(9,13)]docosa-1(20),3(22),4,6,9(21),10,12,16,18-nonaen-12-yl]-N′-[(3R)-1-(methylsulfonyl)pyrrolidin-3-yl]urea trifluoroacetate], for which the IC50 in assay [1] (Table B1) worked out at 0.82 nM; in assay [2] (Table B1), 1.1 nM; in assay [3] (Table B1), 17 nM; against TYK2 (Table B1), 2.6 nM. Besides, in assay [4] (setting [5]), the “ALK % of inhibition” value amounted to 24%.

With `Cc1noc(C)c1NC(=O)N1CCC(CC(=O)Nc2ccc3cc2CCc2cncc(c2)Nc2ncc(Cl)c(n2)N3)CC1` [Example A145, 4-(2-{[6-Chloro-2,4,8,18,22-pentaazatetracyclo[14.3.1.1(3,7).1(9,13)]docosa-1(20),3(22),4,6,9(21),10,12,16,18-nonaen-12-yl]amino}-2-oxoethyl)-N-(3,5-dimethylisoxazol-4-yl)piperidine-1-carboxamide bis(trifluoroacetate)], the IC50 in assay [1] (setting [7]) is 16 nM; in assay [2] (setting [8]) it was 30 nM; in assay [3] (setting [9]), greater than 100 nM; at TYK2, 43 nM. The “ALK % of inhibition” value in assay [4] (compound at 500 nM or 1 mM, 90 μM ATP, bis(trifluoroacetate)) is recorded as 21%.

With `O=C(Nc1ccc2cc1CCc1cccc(c1)Nc1ncc(Cl)c(n1)N2)Nc1ccccc1C(F)(F)F` [Example B111, N-[6-Chloro-2,4,8,22-tetraazatetracyclo[14.3.1.1(3,7).1(9,13)]docosa-1(20), 3(22),4,6,9(21),10,12,16,18-nonaen-12-yl]-N′-[2-(trifluoromethyl)phenyl]urea trifluoroacetate], the 50% inhibitory concentration (IC50) in assay [1] (Table B1) worked out at 3.7 nM; in assay [2] (Table B1) it was 6 nM; in assay [3] (Table B1), 21 nM; against TYK2 (Table B1), 5 nM. For the same molecule, the “ALK % of inhibition” value in assay [4] (setting [5]) is listed as 14%.

For the molecule `CN(C)S(=O)(=O)N1CCC(CC(=O)Nc2ccc3cc2CCc2cncc(c2)Nc2ncc(Cl)c(n2)N3)CC1` [Example A96, N-[6-Chloro-2,4,8,18,22-pentaazatetracyclo[14.3.1.1(3,7).1(9,13)]docosa-1(20),3(22),4,6,9(21),10,12,16,18-nonaen-12-yl]-2-{1-[(dimethylamino)sulfonyl]piperidin-4-yl}acetamide bis(trifluoroacetate)], the IC50 in assay [1] (setting [7]) was determined as 4.5 nM; in assay [2] (setting [8]) it was 6.6 nM; in assay [3] (setting [9]), 80 nM; at TYK2, 11 nM. Moreover, in assay [4] (setting [10]), the “ALK % of inhibition” value is 26%.

Consider `O=C(Nc1ccc2cc1CCc1cccc(c1)Nc1ncc(Cl)c(n1)N2)[C@@H]1CCN(C(=O)NC2CCCC2)C1` [Example A63, (3R)—N(3)-[6-Chloro-2,4,8,22-tetraazatetracyclo[14.3.1.1(3,7).1(9,13)]docosa-1(20),3(22),4,6,9(21),10,12,16,18-nonaen-12-yl]-N(1)-cyclopentylpyrrolidine-1,3-dicarboxamide trifluoroacetate], for which the IC50 in assay [1] (setting [7]) was 9 nM; in assay [2] (setting [8]), 2.5 nM; in assay [3] (setting [9]), 2.6 nM; against TYK2 it was 13 nM. In addition, the “ALK % of inhibition” value in assay [4] (setting [10]) is 29%.

As for `O=C(Nc1cc2cc(c1)Nc1nc(ncc1Cl)Nc1cccc(c1)CC2)Nc1ccccc1F` [Example B213, N-[6-Chloro-2,4,8,22-tetraazatetracyclo[14.3.1.1(3,7).1(9,13)]docosa-1(20),3(22),4,6,9(21),10,12,16,18-nonaen-11-yl]-N′-(2-fluorophenyl)urea trifluoroacetate], the IC50 in assay [1] (Table B1) came to 70 nM; in assay [2] (Table B1), 173 nM; in assay [3] (Table B1) it was 184 nM; on TYK2 (Table B1) it was 206 nM. The “ALK % of inhibition” value in assay [4] (setting [5]) stood at 11%.

In the case of `O=C(Nc1ccc2cc1CCc1cccc(c1)Nc1ncc(Cl)c(n1)N2)c1cccs1` [Example B34, N-[6-Chloro-2,4,8,22-tetraazatetracyclo[14.3.1.1(3,7).1(9,13)]docosa-1(20),3(22),4,6,9(21),10,12,16,18-nonaen-12-yl]thiophene-2-carboxamide trifluoroacetate], the IC50 was 0.85 nM in assay [1] (Table B1); 1 nM in assay [2] (Table B1); 13 nM in assay [3] (Table B1); 5.6 nM on TYK2 (Table B1); 470 nM in assay [4] (setting [6]).

As for `O=C1Nc2cccc(c2)Nc2ncc(Cl)c(n2)Nc2cccc1c2` [Example C1, 6-Chloro-2,4,8,15,22-pentaazatetracyclo[14.3.1.1(3,7).1(9,13)]docosa-1(20),3(22),4,6,9(21),10,12,16,18-nonaen-14-one hydrochloride], the 50% inhibitory concentration (IC50) was greater than 1000 nM in assay [1]; 900 nM in assay [2]; greater than 1000 nM in assay [3]; greater than 1000 nM at TYK2; greater than 10000 nM in assay [4].

As to `CC(C)(C)NS(=O)(=O)c1cc2cc(c1)Nc1nc(ncc1Cl)Nc1cccc(c1)CC2` [Example B16, N-(tert-Butyl)-6-chloro-2,4,8,22-tetraazatetracyclo[14.3.1.1(3,7).1(9,13)]docosa-1(20),3(22),4,6,9(21),10,12,16,18-nonaene-11-sulfonamide trifluoroacetate], the IC50 in assay [1] (Table B1) was 52 nM; in assay [2] (Table B1) it was 7.5 nM; in assay [3] (Table B1) it was 182 nM; at TYK2 (Table B1) it was 206 nM; in assay [4] (setting [6]) it was greater than 10000 nM.

Take `CN(C(=O)Nc1ccc2cc1CCc1cccc(c1)Nc1ncc(Cl)c(n1)N2)[C@H]1CCN(Cc2ccccc2)C1` [Example B283, N-[(3S)-1-Benzylpyrrolidin-3-yl]-N′-[6-chloro-2,4,8,22-tetraazatetracyclo[14.3.1.1(3,7).1(9,13)]docosa-1(20),3(22),4,6,9(21),10,12,16,18-nonaen-12-yl]-N-methylurea]: the IC50 was 141 nM in assay [1] (Table B1), 165 nM in assay [2] (Table B1), greater than 1000 nM in assay [3] (Table B1) and 550 nM on TYK2 (Table B1). Moreover, the “ALK % of inhibition” value in assay [4] (setting [5]) came to 30%.
